Results from patent US20050277664A1, “Monoamine neurotransmitter re-uptake inhibitor for the inhibition of beta-amyloid generation” (Boehringer Ingelheim International GmbH, priority 2004, published 2005).
Like-named read-outs stand apart in the source and are kept apart here.

Assays:
[1] = tested on: Aβ42 secretion by U373 astrocytoma cells expressing human wtAPP695; test: Aβ secretion assay, Aβ42 (sandwich ELISA of cell supernatant); type: cell-based; conditions: for inhibition at 1.56 µM / inhibition at 3.12 µM / inhibition at 6.25 µM / inhibition at 12.5 µM / inhibition at 25 µM / inhibition at 50 µM: Homo sapiens, U373 MG, 17 h, read-out: Aβ42 Secretion, inhibition (−) or stimulation (+); for generation/secretion of Aβ42 (result in words): dose response
Method: (§1) Cell culture and drug treatment: U373 astrocytoma cells expressing human wtAPP695 were used to test the compound of formula IA for Aβ lowering potential. Cells were cultured in 96 well plates in DMEM medium, additionally supplemented with 10% FCS and 1% glutamine, until they have grown to a confluent cell layer. The cells were then incubated for 17 hours in the presence of the compound of formula IA in DMEM medium. Afterwards, 100 μl of the supernatant had been removed and measured with the ELISA as described below to determine the Aβ42 peptide concentrations. The cells were washed, incubated again for 4 hours with the compound, before measuring the Aβ40 levels. AlamarBlue assays (Serotec, Oxford, UK) were conducted to determine cytotoxicity.
(§2) Monoclonal 6E10 against Aβ1-17 (Signet Laboratories, Inc., Dedham, Mass., USA) was used to capture Aβ40; SGY 3160 against Aβ1-16 (Mayo Medical Ventures, Rochester, Minn., USA) to capture Aβ42. Both antibodies were diluted in PBS at a concentration of 8 μg/ml to coat a 96 well plate. Blocking was completed with 1% Block ACE (blocking reagent) (Dainippon Seiyaku, Asaka, Japan) in PBS for 2 hrs. The plates were then washed with PBST and the cell supernatants, diluted 1:1.5 in EC buffer (0.1 M NaH2PO4, 0.1 M Na2HPO4, 2 mM EDTA, 0.4 M NaCl, 0.2% BSA, 0.05% CHAPS, 0.4% Block ACE, 0.05% NaN3 pH 7.0) have been added into the wells, before the plates were stored at 4° C. over night. Detector antibodies (alkaline phosphatase-coupled ROβ40 and ROβ42 against Aβ40 and Aβ42, respectively), were loaded onto the wells at 0.1 μg/ml in ACE Block for 2 hrs. The reporter system used was the Tropix ELISA-Light chemiluminescent detection system (Applied Biosystems (Tropix), Bedford, Mass., USA).
(§3) The compound of formula IA has been tested in an Aβ secretion assay. In this particular in vitro assay, the astrocytoma cell line U373 that stably over-expresses wild-type human amyloid precursor protein (APP) has been exposed to this compound. APP is proteolytically cleaved by 2 enzymes, BACE and γ secretase, to generate the Aβ peptides. Because of a flexible APP cleavage site of γ secretase, several Aβ isoforms are generated, majorly Aβ40 and Aβ42. The rate of Aβ generation/secretion into the medium in the presence or absence of the compound of formula IA in different concentrations has been measured by ELISA (Table 1). The % inhibition (−) or stimulation (+) has been determined in 2 independent experiments.

[2] = tested on: cerebral Aβ42 levels in APPtg mice; test: Cerebral Aβ42 levels in APPtg mice after oral treatment; type: in vivo; conditions: for Level of Aβ42, reduction (−) and/or stimulation (+) of cerebral Aβ levels: per os
Method: (§4) APPtg mice at 3 to 4 months of age were used. A compound of formula (IA) was prepared and administered in a suspension of 0.5% Tylose solution.
(§5) Controls were treated with Tylose only. Each group consisted of 12 or 13 mice with equal numbers of each sex. In the short term study, the animals were treated for the time period of 2.5 days. Twice a day, a dose of 3 mg/kg was applied with interruption times of 11.5-12.5 hours. On the last day (day of sacrifice), one dose of 3 mg/kg was administered and the mice were sacrificed 5.5 hours later. […] In a second long term four weeks study, 3 mg/kg/day of compound of formula IA were administered, subdivided into two subdoses, with an interruption time of 10-12 hours during the day. Each version of the in vivo experiments has been performed once.
(§6) The murine brains were rapidly removed from the skull and divided along the medial fissure. The cerebellum was removed before each half was quickly frozen down on a metal plate that had been cooled down on dry ice. Brains were placed in Eppendorf tubes, frozen in liquid nitrogen, and stored at −80° C. until needed for Aβ extractions or compound measurements.
(§7) Brains were thawed on ice. Mouse hemibrains were extracted in a homogenisation buffer consisting of 20 mM Tris (pH 8.5), 0.2% Triton X-100, and complete proteinase inhibitor with EDTA (Roche Diagnostics GmbH, Mannheim, Germany). The brains were homogenized in a volume […] 5 times the weight of the brain (mg) using a 2 ml Douncer Homogenator (B. Braun, Melsungen, Germany). This was carried out 12 times with a Stempel L, followed by a Stempel S. The homogenates were then ultracentrifuged in Ultracentrifuge tubes (Beckman, CA, USA) at 200.000 g (UZ Sorvall RC 120 GX, KENDRO Laboratories Products GmbH, Hanau, Germany) at 4° C. for 1 hour. The post nuclear supernatants containing the soluble Aβ were collected and measured in a Sandwich ELISA (s.a.).
(§8) Statistical analyses of data was done by one-sided t tests for differences between treatment and control group to determine the p values.

[3] = tested on: Aβ40 secretion by U373 astrocytoma cells expressing human wtAPP695; test: Aβ secretion assay, Aβ40 (sandwich ELISA of cell supernatant); type: cell-based; conditions: for inhibition at 1.56 µM / inhibition at 3.12 µM / inhibition at 6.25 µM / inhibition at 12.5 µM / inhibition at 25 µM / inhibition at 50 µM: Homo sapiens, U373 MG, 4 h, read-out: Aβ40 Secretion, inhibition (−) or stimulation (+); for generation/secretion of Aβ40 (result in words): dose response
Method: as §1, §2, §3

[4] = tested on: cerebral Aβ40 levels in APPtg mice; test: Cerebral Aβ40 levels in APPtg mice after oral treatment; type: in vivo; conditions: for Level of Aβ40, reduction (−) and/or stimulation (+) of cerebral Aβ levels: per os
Method: as §4, §5, §6, §7, §8

[5] = Exp. 1, further 4 hours incubation
[6] = Exp. 2, further 4 hours incubation

## CCOC[C@H]1C2CCC(C[C@@H]1c1ccc(Cl)c(Cl)c1)N2C (some centres unmarked) [Formula IA]
[1]; Exp. 1, 17 hours incubation
  inhibition at 1.56 µM: 3.5%
  inhibition at 3.12 µM: 6.5%
  inhibition at 6.25 µM: 4.1%
  inhibition at 12.5 µM: 17.8%
  inhibition at 25 µM: 24.5%
  inhibition at 50 µM: 26.6%
[1]; Exp. 2, 17 hours incubation
  inhibition at 1.56 µM: -4.5%
  inhibition at 3.12 µM: -16.1%
  inhibition at 6.25 µM: 12.1%
  inhibition at 12.5 µM: 23.2%
  inhibition at 25 µM: 48.9%
  inhibition at 50 µM: 62.3%
[1]; FIG. 2
  generation/secretion of Aβ42 (result in words): increasing inhibition of Aβ42 with an increasing concentration
[1]; FIG. 2, listed as formula 1A
  generation/secretion of Aβ42 (result in words): inhibited
[2]; four weeks study, 3 mg/kg/day in two subdoses
  reduction for Aβ42: 27.4%
[2]; 2 weeks, 1 × 3.0 mg/kg/day, mean ± SEM
  Level of Aβ42, reduction (−) and/or stimulation (+) of cerebral Aβ levels: −16.3 ± 3.7 %
[2]; 4 weeks, 2 × 1.5 mg/kg/day, mean ± two-sided confidence interval
  Level of Aβ42, reduction (−) and/or stimulation (+) of cerebral Aβ levels: −27.4 ± 27.2° %
[2]; 2.5 days, 2 × 3.0 mg/kg day 1, 2, 1 × 3.0 mg/kg day 3, mean ± SEM vs Tylose control
  Level of Aβ42, reduction (−) and/or stimulation (+) of cerebral Aβ levels: +5.1 ± 3.0%
[2]; short term in vivo experiment (2.5 days, 3 mg/kg twice a day), p=0.9136
  increase of Aβ42 levels: 5.1%
[2]; two weeks treatment, 3 mg/kg once a day, p=0.0096
  reduction of the cerebral Aβ42 levels: 16.3%
[3]; [5]
  inhibition at 1.56 µM: 3.2%
  inhibition at 3.12 µM: 6.1%
  inhibition at 6.25 µM: 20.9%
  inhibition at 12.5 µM: 33.9%
  inhibition at 25 µM: 50.1%
  inhibition at 50 µM: 81.3%
[3]; [6]
  inhibition at 1.56 µM: -16%
  inhibition at 3.12 µM: -8%
  inhibition at 6.25 µM: 2.8%
  inhibition at 12.5 µM: 24.8%
  inhibition at 25 µM: 50.3%
  inhibition at 50 µM: 88.5%
[3]; FIG. 1
  generation/secretion of Aβ40 (result in words): increasing inhibition of Aβ40 with an increasing concentration
[3]; FIG. 1, listed as formula 1A
  generation/secretion of Aβ40 (result in words): inhibited
[4]; APPtg mice, 2 weeks, 1 × 3.0 mg/kg/day, mean ± SEM
  Level of Aβ40, reduction (−) and/or stimulation (+) of cerebral Aβ levels: −18.6 ± 7.1 %
[4]; APPtg mice, 4 weeks, 2 × 1.5 mg/kg/day, mean ± two-sided confidence interval
  Level of Aβ40, reduction (−) and/or stimulation (+) of cerebral Aβ levels: −17.2 ± 8.7° %
[4]; APPtg mice, 2.5 days, 2 × 3.0 mg/kg day 1, 2, 1 × 3.0 mg/kg day 3, mean ± SEM vs Tylose control
  Level of Aβ40, reduction (−) and/or stimulation (+) of cerebral Aβ levels: −12.4 ± 1.9 %
[4]; four weeks study, 3 mg/kg/day in two subdoses, APPtg mice
  reduction of Aβ40: 17.2%
[4]; in vivo test, FIG. 3 (short term experiment)
  Aβ40 levels in vivo (result in words): statistically significant reduction
[4]; short term in vivo experiment (2.5 days, 3 mg/kg twice a day), APPtg mice, p=0.0003
  reduction of the Aβ40 levels: 12.4%
[4]; two weeks treatment, 3 mg/kg once a day, APPtg mice, p=0.024
  reduction of the cerebral Aβ40 levels: 18.6%
